Results from patent US20240307374A1, “FORMULATION OF FURIN INHIBITOR FOR INHALATION” (BP ASSET V, INC., priority 2021, published 2024).
Structures can show the parent of a compound that is named as a salt. Marks after values point to notes of the source that are not given here.

How the values were obtained:
Assay type in all cases: physicochemical
[1] = DVS (dynamic vapor sorption) moisture uptake; conditions: for form change after DVS test (XRPD): XRPD before and after DVS; for Moisture Uptake (DVS): 25° C.
Method: (FIG. 5). Sample weight decreased rapidly when humidity decreased from 10% to 0%, which might be caused by loss of crystalline water.
DVS was measured via a SMS (Surface Measurement Systems) DVS Intrinsic.

Grinding stability = conditions: ~30 mg ground manually in a mortar for about 5 minutes
[2] = Equilibrium solubility in pH buffers (3.0-8.0), 20% captisol and water; conditions: 24 hrs; for S: solubility: RT
Method: Additional solids were added into the sample to generate suspension if clear solution obtained. The suspension was equilibrated via stirring (1000 rpm). The suspension was centrifuged to obtain precipitate and supernatants.
Solubility and pH were tested for the supernatants after filtration, and isolated precipitate was tested by XRPD.
(§1) • 1. pH=3.0 buffer (50 mM HCl+KCl): Weigh 365.39 mg KCl into a 100 mL volumetric flask (VF), and add 0.1 mL 1M HCl into the VF, and dilute to volume with water. • 2. pH=4.0 buffer (50 mM citrate): Weigh 56.74 mg citric acid and 60.18 mg trisodium citrate into a 10 mL volumetric flask, and dilute to volume with water. • 3. pH=5.0 buffer (50 mM citrate) Weigh 11.12 mg citric acid and 95.38 mg trisodium citrate into a 10 mL volumetric flask, and dilute to volume with water. • 4. pH=6.0 buffer (50 mM citrate) Weigh 11.04 mg citric acid and 130.2 mg trisodium citrate into a 10 mL volumetric flask, and dilute to volume with water. • 5. pH=6.0 buffer (50 mM phosphate) Weigh 8.7 mg Na2HPO4 and 52.6 mg NaH2PO4 into a 10 mL volumetric flask, and dilute to volume with water. • 6. pH=7.0 buffer (50 mM phosphate) Weigh 23.47 mg Na2HPO4 and 43.34 mg NaH2PO4into a 10 mL volumetric flask, and dilute to volume with water. • 7. pH=8.0 buffer (50 mM phosphate) Weigh 31.64 mg Na2HPO4 and 67.18 mg NaH2PO4into a 10 mL volumetric flask, and dilute to volume with water.

[3] = Equilibrium solubility in pH buffers (pH 4.0-6.0) with pH adjustment; conditions: for S: solubility: with pH adjustment; for pH before adjustment (in brackets): 24 hours
Method: In details, ˜5 mg of solids were suspended into 1 mL of each medium with dosing conc. at ˜5 mg/mL. Additional solids were added into the sample to generate suspension if clear solution was obtained. The suspension was equilibrated via stirring (1000 rpm) for 24 hours. The pH of the suspension was adjusted when the final pH shifted above 0.3, and the samples were stirred for another 1.5 hours after pH adjustment. The suspension was centrifuged to obtain precipitate and supernatants. Solubility, purity and pH were tested for the supernatants after filtration, and isolated precipitate was tested by XRPD.
as §1

[4] = Approximate solubility at RT; conditions: CHCl3, RT, solvent for freeform isolation
Method: Four freeform isolation experiments were performed in different solvent with different acids. Solids were obtained in DCM/HCl and CHCl3/HCl system.
Approximately 2 mg solids were added into a 3-mL glass vial. Solvents in the following table were then added stepwise (50-50-200-700[…] for each step) into the vials and stirred until the solids were dissolved or a total volume of 1 mL was reached. The solubility results were used to guide the solvent selection in polymorph formation.

[5] = pH = 3.0 buffer (50 mM HCl + KCl)
[6] = pH = 4.0 buffer (50 mM citrate)
[7] = pH = 5.0 buffer (50 mM citrate)
[8] = pH = 6.0 buffer (50 mM citrate)
[9] = pH = 7.0 buffer (50 mM phosphate)
[10] = pH = 8.0 buffer (50 mM phosphate)
[11] = pH = 4.0 buffer (50 mM citrate), RT
[12] = pH = 5.0 buffer (50 mM citrate), RT
[13] = pH = 6.0 buffer (50 mM citrate), RT
[14] = pH = 6.0 buffer (50 mM phosphate)
[15] = pH = 6.0 buffer (50 mM phosphate), RT

## CC(=O)NCC1CCN(Cc2cc(Oc3ccc(N4CCN(CCC(=O)O)CC4)nc3)nc(-c3cc(Cl)cc(Cl)c3)c2)CC1 [Sulfate Type B]
[1]
  form change after DVS test (XRPD): Two additional peaks
Grinding stability
  crystallinity after grinding (XRPD): decreased after grinding
[2]; 20% Captisol (pH = 5.0, w/v)
  pH of supernatant (final pH): 2.6
  S: solubility: >44.5^1 mg/mL
[2]; H2O
  FC: form change (XRPD of precipitate): N (N: solid form not changed)
  pH of supernatant (final pH): 2.4
  S: solubility: 1.97 mg/mL
[2]; [5]
  FC: form change (XRPD of precipitate): 1 (1/2/3/4/5: new Form 1/2/3/4/5)
  pH of supernatant (final pH): 2.3
  S: solubility: 8.00 mg/mL
[2]; [6]
  FC: form change (XRPD of precipitate): Low (Low: low crystallinity)
  pH of supernatant (final pH): 3.8
  S: solubility: 2.33 mg/mL
[2]; [7]
  FC: form change (XRPD of precipitate): 3 (1/2/3/4/5: new Form 1/2/3/4/5)
  pH of supernatant (final pH): 4.4
  S: solubility: 1.66* mg/mL
[2]; [8]
  FC: form change (XRPD of precipitate): 3 (1/2/3/4/5: new Form 1/2/3/4/5)
  pH of supernatant (final pH): 4.3
  S: solubility: 0.93* mg/mL
[2]; [9]
  FC: form change (XRPD of precipitate): 2 (1/2/3/4/5: new Form 1/2/3/4/5)
  pH of supernatant (final pH): 5.6
  S: solubility: 0.61* mg/mL
[2]; [10]
  pH of supernatant (final pH): 6.9
  S: solubility: 0.04* mg/mL
[3]; [6]
  Area % (purity of supernatant): 99.2 Area %
  FC: form change (XRPD of precipitate): Low (Low; low crystallinity)
  pH (final, after adjustment where adjusted): 3.9
[3]; [11]
  S: solubility: 2.29 mg/mL
[3]; [7]
  Area % (purity of supernatant): 99.4 Area %
  FC: form change (XRPD of precipitate): 3 (3/4/6/7/8: new Form 3/4/6/7/8)
  pH (final, after adjustment where adjusted): 5.0*
  pH before adjustment (in brackets): (4.5)
[3]; [12]
  S: solubility: 6.82^# mg/mL
[3]; [8]
  Area % (purity of supernatant): 92.6 Area %
  FC: form change (XRPD of precipitate): 6 (3/4/6/7/8: new Form 3/4/6/7/8)
  pH (final, after adjustment where adjusted): 6.1*
  pH before adjustment (in brackets): (4.4)
[3]; [13]
  S: solubility: 0.07 mg/mL
[3]; [14]
  Area % (purity of supernatant): 88.2 Area %
  pH (final, after adjustment where adjusted): 6.2*
  pH before adjustment (in brackets): (3.0)
[3]; [15]
  S: solubility: 0.06 mg/mL

## CC(=O)NCC1CCN(Cc2cc(Oc3ccc(N4CCN(CCC(=O)O)CC4)nc3)nc(-c3cc(Cl)cc(Cl)c3)c2)CC1 [Fumarate Type A]
[1]; from 30% RH to 80% RH
  Moisture Uptake (DVS): 2.5 (from 30% RH to 80% RH)
[1]
  form change after DVS test (XRPD): crystallinity of fumarate Type A decreased
Grinding stability
  crystallinity after grinding (XRPD): decreased after grinding
[2]; 20% Captisol (pH = 5.0, w/v)
  pH of supernatant (final pH): 4.3
  S: solubility: 29.6 mg/mL
[2]; H2O
  FC: form change (XRPD of precipitate): 4 (1/2/3/4/5: new Form 1/2/3/4/5)
  pH of supernatant (final pH): 3.8
  S: solubility: 1.85 mg/mL
[2]; [5]
  FC: form change (XRPD of precipitate): 5 (1/2/3/4/5: new Form 1/2/3/4/5)
  pH of supernatant (final pH): 3.5
  S: solubility: 0.65 mg/mL
[2]; [6]
  FC: form change (XRPD of precipitate): 4 (1/2/3/4/5: new Form 1/2/3/4/5)
  pH of supernatant (final pH): 4.1
  S: solubility: 3.45* mg/mL
[2]; [7]
  FC: form change (XRPD of precipitate): 4 (1/2/3/4/5: new Form 1/2/3/4/5)
  pH of supernatant (final pH): 4.8
  S: solubility: 7.79 mg/mL
[2]; [8]
  FC: form change (XRPD of precipitate): 4 (1/2/3/4/5: new Form 1/2/3/4/5)
  pH of supernatant (final pH): 5.1
  S: solubility: 20.6 mg/mL
[2]; [9]
  pH of supernatant (final pH): 6.6
  S: solubility: 0.05 mg/mL
[2]; [10]
  pH of supernatant (final pH): 7.2
  S: solubility: 0.02 mg/mL
[3]; [6]
  Area % (purity of supernatant): 99.3 Area %
  FC: form change (XRPD of precipitate): 4 (3/4/6/7/8: new Form 3/4/6/7/8)
  pH (final, after adjustment where adjusted): 4.0
[3]; [11]
  S: solubility: 3.04 mg/mL
[3]; [7]
  Area % (purity of supernatant): 99.4 Area %
  FC: form change (XRPD of precipitate): 4 (3/4/6/7/8: new Form 3/4/6/7/8)
  pH (final, after adjustment where adjusted): 4.9*
  pH before adjustment (in brackets): (4.1)
[3]; [12]
  S: solubility: 19.3 mg/mL
[3]; [8]
  Area % (purity of supernatant): 98.6 Area %
  FC: form change (XRPD of precipitate): 7 (3/4/6/7/8: new Form 3/4/6/7/8)
  pH (final, after adjustment where adjusted): 6.1*
  pH before adjustment (in brackets): (5.0)
[3]; [13]
  S: solubility: 0.24 mg/mL
[3]; [14]
  Area % (purity of supernatant): 95.6 Area %
  pH (final, after adjustment where adjusted): 6.2*
  pH before adjustment (in brackets): (4.6)
[3]; [15]
  S: solubility: 0.09 mg/mL

## CC(=O)NCC1CCN(Cc2cc(Oc3ccc(N4CCN(CCC(=O)O)CC4)nc3)nc(-c3cc(Cl)cc(Cl)c3)c2)CC1 [starting material]
[1]; from 10% RH to 80% RH
  Moisture Uptake (DVS): 0.7%
[1]
  form change after DVS test (XRPD): no form change
[4]
  solubility: S > 50.5 mg/mL

## CC(=O)NCC1CCN(Cc2cc(Oc3ccc(N4CCN(CCC(=O)O)CC4)nc3)nc(-c3cc(Cl)cc(Cl)c3)c2)CC1 [HCl salt Type F]
[1]; from 20% RH to 80% RH
  Moisture Uptake (DVS): 1.4 (from 20% RH to 80% RH)
[1]
  form change after DVS test (XRPD): No form change
Grinding stability
  crystallinity after grinding (XRPD): decreased after grinding
[2]; 50 mM pH buffers, pH 3.0-8.0, 21 °C, pH 3, aqueous buffer, thermodynamic from solid, 50 mM pH buffers pH 3.0-8.0, RT, read-out: solubility in pH buffers (overall bound)
  solubility at 24 h: < 8000 µg/mL
[2]; 20% Captisol (pH = 5.0, w/v)
  pH of supernatant (final pH): 3.5
  S: solubility: >48.0^1 mg/mL
[2]; H2O
  FC: form change (XRPD of precipitate): 5 (1/2/3/4/5: new Form 1/2/3/4/5)
  pH of supernatant (final pH): 2.4
  S: solubility: 4.24 mg/mL
[2]; [5]
  FC: form change (XRPD of precipitate): 5 (1/2/3/4/5: new Form 1/2/3/4/5)
  pH of supernatant (final pH): 2.7
  S: solubility: 2.77 mg/mL
[2]; [6]
  FC: form change (XRPD of precipitate): Low (Low: low crystallinity)
  pH of supernatant (final pH): 3.9
  S: solubility: 1.12 mg/mL
[2]; [7]
  FC: form change (XRPD of precipitate): Low (Low: low crystallinity)
  pH of supernatant (final pH): 5.0
  S: solubility: 2.64 mg/mL
[2]; [8]
  FC: form change (XRPD of precipitate): A^
  pH of supernatant (final pH): 5.8
  S: solubility: 0.62 mg/mL
[2]; [9]
  FC: form change (XRPD of precipitate): A^+
  pH of supernatant (final pH): 6.5
  S: solubility: 0.06 mg/mL
[2]; [10]
  FC: form change (XRPD of precipitate): A^+
  pH of supernatant (final pH): 7.2
  S: solubility: 0.02 mg/mL
[3]; 50 mM pH 4.0-6.0 buffers, pH 4, aqueous buffer, thermodynamic from solid, 50 mM pH 4.0-6.0 buffers with pH adjustment, RT, read-out: solubility in pH buffers (overall bound)
  solubility at 24 h: < 6800 µg/mL
[3]; [6]
  Area % (purity of supernatant): 99.0 Area %
  FC: form change (XRPD of precipitate): Low (Low; low crystallinity)
  pH (final, after adjustment where adjusted): 4.0
[3]; [11]
  S: solubility: 1.52 mg/mL
[3]; [7]
  Area % (purity of supernatant): 99.6 Area %
  FC: form change (XRPD of precipitate): Low (Low; low crystallinity)
  pH (final, after adjustment where adjusted): 4.9
[3]; [12]
  S: solubility: 2.32 mg/mL
[3]; [8]
  Area % (purity of supernatant): 99.0 Area %
  FC: form change (XRPD of precipitate): 8 (3/4/6/7/8: new Form 3/4/6/7/8)
  pH (final, after adjustment where adjusted): 5.7
[3]; [13]
  S: solubility: 1.15 mg/mL
[3]; [14]
  Area % (purity of supernatant): 98.9 Area %
  FC: form change (XRPD of precipitate): Low (Low; low crystallinity)
  pH (final, after adjustment where adjusted): 5.9*
  pH before adjustment (in brackets): (3.9)
[3]; [15]
  S: solubility: 0.43 mg/mL
